Test: Stability of Tc-99m labeled compound, labeling purity by HPLC
Format: physicochemical
Conditions: 99mTc-labeled, cysteine and VB1, until 4 hours (Table 11)
Description: 2 mL of Tc-99m was added dropwise to a lyophilized vial including 0.1 mg of GP-104, 15 μg of SnCl2, and 10 μg of cysteine, the vial was allowed to stand at room temperature for 10 minutes, and the reaction was terminated by adjusting pH to 7 using a NaOH solution. Labeling purity was confirmed to be 93.21% by HPLC (analysis conditions: Luna C18 250×4.6 mm, phosphate buffer:acetonitrile (100:0, 0 to 5 minutes; 80:20, 5 to 10 minutes; 80:20, 17 minutes; 100:0, 17.1 minutes). 100:0. 20 min), 1.0 mL/min, UV=280 nm).
In order to confirm the effect of cysteine addition after the reaction, the following experiment was performed: 0.1 mg of GP-104 was dissolved in water for injection, the pH was adjusted to about 3.5 when 10 μL of SnCl2 (1.5 mg/mL) and 2 mL of Tc-99m were added thereto, and the resulting mixture was allowed to stand at room temperature for 10 minutes. The reaction was terminated by adjusting the pH to 7 using a NaOH solution and 10 μL of cysteine (1.0 mg/mL). Labeling purity was confirmed to be 91.4% using HPLC in the same manner as in Example 2-7.
After 0.1 mg of GP-104 was dissolved in water for injection, pH was adjusted to about 3.5 and the resulting solution was allowed to stand at room temperature for 10 minutes when 10 μL of SnCl2 (1.5 mg/mL), 10 μL of cysteine (1.0 mg/mL) and 2 mL of Tc-99m were added thereto, and the reaction was terminated by adjusting the pH to 7 using a NaOH solution. Labeling purity was confirmed to be 94.84% using HPLC in the same manner as in Example 2-7.
HCl and NaOH was additionally added dropwise to the solution of Example 2-8 to perform a stability evaluation by adjusting the final pH of the solution to acidic (pH 5.5) and basic (pH 8.5) conditions, and labeling purity was confirmed using HPLC in the same manner as in Example 2-7.
HCl and NaOH was additionally added dropwise to the solution of Example 2-9 to perform a stability evaluation by adjusting the final pH of the solution to acidic (pH 5.5) and basic (pH 8.5) conditions, and labeling purity was confirmed using HPLC in the same manner as in Example 2-7.
HCl and NaOH was additionally added dropwise to the solution of Example 2-10 to perform a stability evaluation by adjusting the final pH of the solution to acidic (pH 5.5) and basic (pH 8.5) conditions, and labeling purity was confirmed using HPLC in the same manner as in Example 2-7.
0.1 mg of GP-105 was dissolved in water for injection, the pH was adjusted to about 3.5 when 10 μL of SnCl2 (1.5 mg/mL) and 2 mL of Tc-99m were added thereto, and the resulting mixture was allowed to stand at room temperature for 10 minutes. The reaction was terminated by adjusting the pH to 7 using a NaOH solution and 10 μL of cysteine (1.0 mg/mL). Labeling purity was confirmed to be 98.1% using HPLC in the same manner as in Example 2-7.
HCl and NaOH was additionally added dropwise to the solution of Example 2-12 to perform a stability evaluation by adjusting the final pH of the solution to acidic (pH 5.5) and basic (pH 8.5) conditions, and labeling purity was confirmed using HPLC in the same manner as in Example 2-7.
HCl and NaOH was additionally added dropwise to the solution of Example 2-13 to perform a stability evaluation by adjusting the final pH of the solution to acidic (pH 5.5) and basic (pH 8.5) conditions, and labeling purity was confirmed using HPLC in the same manner as in Example 2-7.
HCl and NaOH was additionally added dropwise to the solution of Example 2-14 to perform a stability evaluation by adjusting the final pH of the solution to acidic (pH 5.5) and basic (pH 8.5) conditions, and labeling purity was confirmed using HPLC in the same manner as in Example 2-7.

- radiochemical purity (acidic conditions): ≥ 98%
- radiochemical purity (basic conditions): ≥ 90%
- radiochemical purity (pH of 7): ≥ 94%
SMILES: O=C(O)C[C@H](NC(=O)[C@@H]1CCCN(C(=O)CCC2CCNCC2)C1)c1cncc(OCCNC(=O)CN(CC(=O)O)CC(=O)O)c1 [GP-105, 2,2′-((2-((2-((5-((S)-2-carboxy-1-((R)-1-(3-(piperidin-4-yl)propanoyl)piperidine-3-carboxamido)ethyl)pyridin-3-yl)oxy)ethyl)amino)-2-oxoethyl)azanediyl)diacetic acid]
